Test results published in PMC9481570, “A small molecule antagonist of SMN disrupts the interaction between SMN and RNAP II” (Nature Communications, 2022).

System: R-loops at ACTB gene locus
Experiment: R-loop DNA immunoprecipitation with GFP-HB along ACTB locus
Assay type: cell-based, human
Conditions: for GFP-HB DNA immunoprecipitation qPCR, ACTB position 332 / GFP-HB DNA immunoprecipitation qPCR, ACTB position 1671 / GFP-HB DNA immunoprecipitation qPCR, ACTB position 3560 / GFP-HB DNA immunoprecipitation qPCR, ACTB position 3752 / GFP-HB DNA immunoprecipitation qPCR, ACTB position 4657 / GFP-HB DNA immunoprecipitation qPCR, ACTB position 5590 / GFP-HB DNA immunoprecipitation qPCR, ACTB position -72: HEK293 cells transfected with GFP-HB; for R-loop signals at the 3′-end of the ACTB gene: HEK293 cells, GFP-HB DNA immunoprecipitation
Text: Fig. 4 Effects of SMN antagonists on the interaction between SMN and RNAP II, RNAP II pause, and R-loop accumulation. a SMN antagonists disrupt binding of SMN to RNAP II. Data shown are representative of three independent experiments. b Illustration of ACTB gene and the qPCR amplification positions. c SMN antagonists reduce SMN association at ACTB gene locus. Quantification of SMN qPCR data from ChIP experiments using SMN antibody at the indicated ACTB amplification positions. The SMN levels in DMSO controls were set as 100%. d SMN antagonists lead to RNAP II pause. Quantification of RNAP II qPCR data from ChIP experiments using POLR2A antibody at the indicated ACTB amplification positions. e SMN knockout (KO) leads to R-loop accumulation. Representative single-plane images of Z-stacks of the R-loop levels in scramble vs SMN KO cells of three independent experiments. Scale bar: 5 μm. f Global nuclear R-loop accumulation in SMN KO cells. g SMN antagonists cause global nuclear R-loop accumulation. h SMN antagonists lead to R-loop accumulation at ACTB gene locus. Quantified DNA immunoprecipitation using primers along ACTB locus by using GFP antibody, in cell extracts that were transfected with GFP-RNase H1 R-loop-binding domain (GFP-HB) fusion construct for R-loop detection. a–h HEK293 cells; c, d, h data were presented as the mean ± S.E.M. of three independent experiments (*P < 0.05, **P < 0.01, ***P < 0.001 for the two-tailed Student’s t-test); f, g scatter plots representing data from single-cell and R-loop immunofluorescence analysis (number of cells = 377, 332, 295, 262, 265 for scramble, SMN KO, DMSO, Cmpd 1, Cmpd 2 condition, respectively; Mean ± Quartiles; ****P < 0.0001 for the two-tailed Mann–Whitney test; a.u.: arbitrary units). Source data are provided as a Source Data file.
HEK293 cells (ATCC, CRL-1573) were grown in DMEM (SLRI media facility) plus 10% FBS (Sigma, F1051). For analysis of SMN chemical antagonists, HEK293 cells were treated with DMSO or a series of concentrations (0, 2, 6, 10, 20, 30, 40, and 80 μM) of compound 1, compound 2 or negative compound 15 for 72 h. CRISPR-mediated SMN1 gene knockout was performed according to our previous study. Briefly, 2 μg of CRISPR/Cas9 plasmid (pCMV-Cas9-GFP), which expresses scrambled guide RNA, or guide RNA that targets the SMN1 gene exon1 (gRNA target sequence: […]) or exon3 (gRNA target sequence: […]) was transfected into HEK293 cells. Cells were sorted by BD FACSAria flow cytometry at Donnelly Center, University of Toronto 24 h after transfection, and single GFP-positive cells were seeded into a 48-well plate. The expression levels of SMN in each clone were detected by immunofluorescence. The transfection of GFP-RNase H1 R-loop-binding domain (GFP-HB) for R-loop detection into HEK293 cells was performed with the FuGENE Transfection reagent (Roche, E269A).
ChIP was performed using the EZ-ChIP™ A - Chromatin Immunoprecipitation Kit (Millipore, 17-371) according to the manufacturer’s instruction. Antibodies were used with a range of 1–2 μg, and IgG (Millipore, polyclonal antibody, 12-370) was used as a background control. After immunoprecipitation, genomic DNA was de-crosslinked in ChIP elution buffer containing 5 M NaCl at 65 °C overnight and purified with the Qiaex II kit (Qiagen, 20021), and eluted in water for PCR amplification. Immunoprecipitated and input DNAs were used as templates for qPCR. The qPCR primer sequences for ACTB gene are the same as described earlier[9] and shown in the Supplementary Table 2. For analysis of SMN chemical antagonists, HEK293 cells were treated with DMSO, compound 1 or compound 2 (a final concentration of 20 μM) for 72 h, before processing for ChIP.

In the case of `Cn1c2c(c(=N)c3c1CCC3)CCC2` [Compound 1, 4-methyl-2,3,4,5,6,7-hexahydrodicyclopenta[b,e]pyridin-8(1H)-imine], the “GFP-HB DNA immunoprecipitation qPCR, ACTB position 332” value is reported as 0.009604, the “GFP-HB DNA immunoprecipitation qPCR, ACTB position 1671” value is reported as 0.01285 and the “GFP-HB DNA immunoprecipitation qPCR, ACTB position 3560” value is reported as 0.03192. For the same compound, the “GFP-HB DNA immunoprecipitation qPCR, ACTB position 3752” value was 0.04162, the “GFP-HB DNA immunoprecipitation qPCR, ACTB position 4657” value was 0.02409 and the “GFP-HB DNA immunoprecipitation qPCR, ACTB position 5590” value was 0.01303. For the same compound, the “GFP-HB DNA immunoprecipitation qPCR, ACTB position -72” value was 0.00357 and the “R-loop signals at the 3′-end of the ACTB gene” value was “significantly increased”.
For `CCCn1c2c(c(=N)c3c1CCC3)CCC2` [Compound 2, 4-propyl-2,3,4,5,6,7-hexahydrodicyclopenta[b,e]pyridin-8(1H)-imine], the “GFP-HB DNA immunoprecipitation qPCR, ACTB position 332” value was 0.008454, the “GFP-HB DNA immunoprecipitation qPCR, ACTB position 1671” value was 0.01239 and the “GFP-HB DNA immunoprecipitation qPCR, ACTB position 3560” value was 0.02386. The “GFP-HB DNA immunoprecipitation qPCR, ACTB position 3752” value was 0.02558, the “GFP-HB DNA immunoprecipitation qPCR, ACTB position 4657” value was 0.01308 and the “GFP-HB DNA immunoprecipitation qPCR, ACTB position 5590” value was 0.01171. For the same compound, the “GFP-HB DNA immunoprecipitation qPCR, ACTB position -72” value was 0.004979 and the “R-loop signals at the 3′-end of the ACTB gene” value was “significantly increased”.
